Experimental data reported in patent publication US12194039B2, “Methods of treating heart failure by administering omecamtiv mecarbil” (Cytokinetics, Inc., priority 2020, dated 2025).
“And” between values parts separate entries of the source, which are not always exact repeats. Equal entries are not always repeated. “Also recorded” adds a separate entry of the source. Where two headings read alike, the source gives them in different places.

How the values were obtained:
MATE1 = molecular target: T1, MATE1 (Homo sapiens, UniProt Q96FL8); assay: In vitro inhibition by OM; format: in vitro ADME; conditions: result in words
T1 sequence (Q96FL8 1-570): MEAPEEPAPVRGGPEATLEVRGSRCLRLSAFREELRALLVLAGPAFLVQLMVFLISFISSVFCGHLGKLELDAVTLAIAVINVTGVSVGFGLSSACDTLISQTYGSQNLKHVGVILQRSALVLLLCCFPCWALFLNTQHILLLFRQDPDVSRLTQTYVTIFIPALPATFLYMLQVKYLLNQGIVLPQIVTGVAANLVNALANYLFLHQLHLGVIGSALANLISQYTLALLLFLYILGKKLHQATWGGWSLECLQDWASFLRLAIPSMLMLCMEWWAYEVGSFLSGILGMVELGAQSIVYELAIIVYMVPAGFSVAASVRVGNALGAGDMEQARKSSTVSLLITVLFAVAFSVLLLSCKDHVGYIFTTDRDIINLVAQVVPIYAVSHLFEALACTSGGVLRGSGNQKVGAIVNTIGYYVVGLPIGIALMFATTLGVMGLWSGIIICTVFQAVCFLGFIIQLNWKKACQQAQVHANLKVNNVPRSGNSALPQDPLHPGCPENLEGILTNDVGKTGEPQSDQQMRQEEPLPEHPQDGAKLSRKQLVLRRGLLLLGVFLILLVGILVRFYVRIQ

CYP3A4 = CYP3A4 (Homo sapiens, UniProt P08684); assay: Metabolism of OM by CYP enzymes; format: in vitro ADME; conditions: result in words
Chain of CYP3A4 (P08684 whole entry): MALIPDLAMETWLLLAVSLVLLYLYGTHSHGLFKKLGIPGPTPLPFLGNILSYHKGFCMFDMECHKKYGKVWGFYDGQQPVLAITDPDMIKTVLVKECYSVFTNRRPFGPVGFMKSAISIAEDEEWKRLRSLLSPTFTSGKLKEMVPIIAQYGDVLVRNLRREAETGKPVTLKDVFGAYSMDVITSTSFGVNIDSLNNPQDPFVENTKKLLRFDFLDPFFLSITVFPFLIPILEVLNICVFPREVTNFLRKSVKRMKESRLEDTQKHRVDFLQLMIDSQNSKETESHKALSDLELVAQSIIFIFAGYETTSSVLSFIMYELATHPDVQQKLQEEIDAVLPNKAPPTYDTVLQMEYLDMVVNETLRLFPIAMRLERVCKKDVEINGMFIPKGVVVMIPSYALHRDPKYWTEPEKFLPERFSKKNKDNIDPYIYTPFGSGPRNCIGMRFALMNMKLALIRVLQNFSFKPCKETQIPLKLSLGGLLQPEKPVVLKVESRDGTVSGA
Excerpt: (§1) Clearance of OM after oral administration was primarily through metabolism in the liver. […] Following oral administration of radiolabeled OM to healthy subjects, approximately 49% of the dose was excreted in urine (primarily as metabolites with 8% of parent compound recovered) and 38% in feces (primarily as unchanged drug).

CYP2D6 = CYP2D6 (Homo sapiens, UniProt P10635); assay: Metabolism of OM by CYP enzymes; format: in vitro ADME; conditions: result in words; listed as OM
Chain of CYP2D6 (P10635 whole entry): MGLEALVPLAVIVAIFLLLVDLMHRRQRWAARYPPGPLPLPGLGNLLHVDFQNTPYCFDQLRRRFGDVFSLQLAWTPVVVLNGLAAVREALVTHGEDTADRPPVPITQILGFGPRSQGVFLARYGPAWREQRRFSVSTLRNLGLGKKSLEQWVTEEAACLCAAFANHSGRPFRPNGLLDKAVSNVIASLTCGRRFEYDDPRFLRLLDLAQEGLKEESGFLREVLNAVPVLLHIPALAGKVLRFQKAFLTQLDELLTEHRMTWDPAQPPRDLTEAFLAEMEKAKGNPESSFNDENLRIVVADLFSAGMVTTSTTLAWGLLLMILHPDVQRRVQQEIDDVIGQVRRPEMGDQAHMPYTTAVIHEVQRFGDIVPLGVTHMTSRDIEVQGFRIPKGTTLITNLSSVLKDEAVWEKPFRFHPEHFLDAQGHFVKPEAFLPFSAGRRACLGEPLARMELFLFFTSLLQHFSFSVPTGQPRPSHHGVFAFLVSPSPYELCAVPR
Excerpt: as §1

[1] = tested on: patients with EF≤30%, without AFF, without digoxin; format: in vivo, human
[2] = tested on: patients with HFrEF by baseline NT-proBNP (no AF/F and all randomized); conditions: for 1° Outcome (time to HF hospitalization or CV death), HR / All-cause death, HR / Hospitalization for HF, HR / NT-proBNP change from baseline to 24 weeks, Ratio: OM vs placebo
Method: Here we report the effect of omecamtiv mecarbil according to baseline NT-proBNP level in patients without AF/F and in the overall population. In addition, we describe the effect of omecamtiv mecarbil using NT-proBNP as a continuous as well as a categorical measure and describe the effect of omecamtiv mecarbil on NT-proBNP level.
NT-proBNP was measured at baseline and at 2, 6, 24, 48 and 96 weeks after randomization. Plasma NT-proBNP was measured in a central laboratory (Q Squared Solutions) using the Roche Elecsys NT-proBNP two-site electrochemiluminescence immunoassay (analytical range 50-35000 pg/m L).
Baseline characteristics were summarized as frequencies with percentages, means with standard deviation (SD), or medians with interquartile ranges. Differences in baseline characteristics were tested using the Cochrane-Armitage trend test for categorical variables and the analysis of variance test for continuous variables. The difference between treatment groups in NT-proBNP at the time points after randomization in surviving patients was analyzed using an analysis of covariance model, with treatment-group assignment as a fixed-effect factor and baseline NT-proBNP as a covariate. […] Time-to-event data were evaluated with Kaplan-Meier estimates and Cox proportional-hazards models with baseline hazards stratified by randomization setting and region and with treatment group and baseline eGFR as covariates. The safety analyses were performed in patients who underwent randomization and received at least one dose of omecamtiv mecarbil or placebo. […] A P-value of 0.05 was considered statistically significant.

[3] = Clinical pharmacokinetics: distribution and elimination; conditions: human, in vivo
Excerpt: The volume of distribution at steady state was approximately 4.8-6.6 L/kg.
as §1

[4] = EF ≤30%, no AFF, no digoxin, OM + standard care (n = 2674)
[5] = EF ≤30%, no AFF, no digoxin, OM vs Pbo
[6] = All patients, baseline NT-proBNP >median
[7] = All patients, baseline NT-proBNP >median, OM n = 2034
[8] = All patients, baseline NT-proBNP ≤median
[9] = All patients, baseline NT-proBNP ≤median, OM n = 2073
[10] = No AF/F, baseline NT-proBNP >median
[11] = No AF/F, baseline NT-proBNP >median, OM n = 1489
[12] = No AF/F, baseline NT-proBNP ≤median
[13] = No AF/F, baseline NT-proBNP ≤median, OM n = 1476
[14] = patients without AF/F, baseline NT-proBNP>median

COC(=O)N1CCN(Cc2cccc(NC(=O)Nc3ccc(C)nc3)c2F)CC1 [omecamtiv mecarbil]
Inhibition of MATE1 (MATE1): inhibitor
Metabolism by CYP3A4 (CYP3A4): substrate
Metabolism by CYP3A4 (CYP3A4; listed as OM): extensively metabolized; also recorded: metabolized in vitro
Metabolism by CYP2D6 (CYP2D6): extensively metabolized; also recorded: metabolized in vitro
Cumulative rate of HFEs at 36 months [1, 4]: 81.8/ /100 pts
Frequency of HFE (all events) [1, 4]: 31.2/ /100 pt yrs
IV Diuretics /Inotropes Nasodilators [1, 4]: 35.7 /100 pt yrs
Mechanical circulatory support during HF hospitalizations [1, 4]: 2.2 /100 pt yrs
Mechanical fluid removal during HF hospitalizations [1, 4]: 0.8 /100 pt yrs
Time to first HFE, rate [1, 4]: 18.9/ /100 pt yrs
Total days in hospital [1, 4]: 524.1 /100 pt yrs
Cumulative rate of HFEs at 36 months, Rate Ratio [1, 5]: Rate Ratio 0.799
Cumulative rate of HFEs: treatment effect over time [1, 5]: increasing
Frequency of HFE (all events), ARR [1, 5]: ARR 6.7/100 pt yrs
Frequency of HFE (all events), HR [1, 5]: HR 0.85,
Frequency of HFE (all events), NNT [1, 5]: NNT 14.9
Time to first HFE, ARR [1, 5]: ARR 3.8/100 pt yrs
Time to first HFE, NNT [1, 5]: NNT 26.5
Clinical benefits and resource utilization ([1]; EF≤30%, without AFF, without digoxin at baseline, result in words): significant clinical benefits and reductions in resource utilization
NT-proBNP at 24 wks [2, 6]: 2809 pg/mL
1° Outcome (time to HF hospitalization or CV death), % [2, 7]: (48) %
1° Outcome (time to HF hospitalization or CV death), Rate [2, 7]: 36.52 per 100 person-years
All-cause Death (%) [2, 7]: (36) %
All-cause Death Rate [2, 7]: 21.87 per 100 person-years
Hospitalization for HF, % [2, 7]: (37) %
Hospitalization for HF, Rate [2, 7]: 27.93 per 100 person-years
1° Outcome (time to HF hospitalization or CV death), HR [2, 6]: 0.88
All-cause death, HR [2, 6]: 0.97
Hospitalization for HF, HR [2, 6]: 0.88
NT-proBNP change from baseline to 24 weeks, Ratio [2, 6]: 0.84
NT-proBNP at 24 wks [2, 8]: 772 pg/mL
1° Outcome (time to HF hospitalization or CV death), % [2, 9]: (26) %
1° Outcome (time to HF hospitalization or CV death), Rate [2, 9]: 15.00 per 100 person-years
All-cause Death (%) [2, 9]: (16) %
All-cause Death Rate [2, 9]: 8.11 per 100 person-years
Hospitalization for HF, % [2, 9]: (20) %
Hospitalization for HF, Rate [2, 9]: 11.84 per 100 person-years
1° Outcome (time to HF hospitalization or CV death), HR [2, 8]: 1.02
All-cause death, HR [2, 8]: 1.10
Hospitalization for HF, HR [2, 8]: 1.04
NT-proBNP change from baseline to 24 weeks, Ratio [2, 8]: 0.95
NT-proBNP threshold at which the favorable effect emerged ([2]; NT-proBNP as a continuous measure, patients without AF/F): around 2,000 pg/mL
NT-proBNP at 24 wks [2, 10]: 2302 pg/mL
1° Outcome (time to HF hospitalization or CV death), % [2, 11]: (44) %
1° Outcome (time to HF hospitalization or CV death), Rate [2, 11]: 31.30 per 100 person-years
All-cause Death (%) [2, 11]: (32) %
All-cause Death Rate [2, 11]: 18.67 per 100 person-years
Hospitalization for HF, % [2, 11]: (32) %
Hospitalization for HF, Rate [2, 11]: 23.26 per 100 person-years
1° Outcome (time to HF hospitalization or CV death), HR [2, 10]: 0.81
All-cause death, HR [2, 10]: 0.86
Hospitalization for HF, HR [2, 10]: 0.79
NT-proBNP change from baseline to 24 weeks, Ratio [2, 10]: 0.83
NT-proBNP at 24 wks [2, 12]: 614 pg/mL
1° Outcome (time to HF hospitalization or CV death), % [2, 13]: (22) %
1° Outcome (time to HF hospitalization or CV death), Rate [2, 13]: 12.42 per 100 person-years
All-cause Death (%) [2, 13]: (13) %
All-cause Death Rate [2, 13]: 6.74 per 100 person-years
Hospitalization for HF, % [2, 13]: (17) %
Hospitalization for HF, Rate [2, 13]: 9.62 per 100 person-years
1° Outcome (time to HF hospitalization or CV death), HR [2, 12]: 0.94
All-cause death, HR [2, 12]: 0.96
Hospitalization for HF, HR [2, 12]: 0.97
NT-proBNP change from baseline to 24 weeks, Ratio [2, 12]: 0.95
Effect on NT-proBNP by baseline NT-proBNP ([2]; baseline to 24 weeks, result in words): reduced NT-proBNP only in patients with a baseline value NT-proBNP greater than the median
Adverse events compared to placebo ([2]; in vivo): no strong or consistent evidence that any adverse event was more common
Effect on systolic blood pressure ([2]; in vivo): did not have a significant effect
Effect on troponin I ([2]; in vivo): increased troponin I, significantly
HR (heart rate) at 24 wks ([2]; in vivo): 70 (11) bpm and 69 bpm and 70 (12) bpm and 70 bpm
Major cardiac ischemic events, RR ([2]; in vivo): 1.16 (0.86, 1.56) and 1.10 (0.85, 1.43) and 1.08 (0.80, 1.47) and 0.99 (0.74, 1.33)
Major cardiac ischemic events, number of patients ([2]; in vivo): 86 (5.8) and 114 (5.5) and 83 (5.6) and 85 (4.2)
Major cardiac ischemic events, value in parentheses ([2]; in vivo): 86 (5.8) and 114 (5.5) and 83 (5.6) and 85 (4.2)
Reduction of heart rate ([2]; in vivo): 1-2 beats per minute
SBP at 24 wks ([2]; in vivo): 120 mmHg and 116 mmHg
Stroke, RR ([2]; in vivo): 0.83 (0.49, 1.39) and 0.68 (0.44, 1.03) and 0.73 (0.45, 1.17) and 0.69 (0.46, 1.03)
Stroke, number of patients ([2]; in vivo): 25 (1.7) and 36 (1.7) and 29 (2.0) and 40 (2.0)
Stroke, value in parentheses ([2]; in vivo): 25 (1.7) and 36 (1.7) and 29 (2.0) and 40 (2.0)
Torsade/QT prolongation, RR ([2]; in vivo): 0.84 (0.58, 1.23) and 0.88 (0.65, 1.19) and 1.01 (0.73, 1.39) and 0.94 (0.72, 1.23)
Troponin I change from baseline to 24 weeks, Ratio ([2]; in vivo): 1.28 and 1.25 and 1.23
Ventricular tachyarrhythmia leading to treatment, RR ([2]; in vivo): 0.67 (0.42, 1.07) and 0.86 (0.59, 1.25) and 1.15 (0.77, 1.72) and 1.02 (0.73, 1.42)
Ventricular tachyarrhythmia, RR ([2]; in vivo): 0.82 (0.62, 1.09) and 0.89 (0.71, 1.12) and 1.05 (0.82, 1.35) and 1.03 (0.83, 1.27)
Ventricular tachyarrhythmia, number of patients ([2]; in vivo): 84 (6.7) and 130 (7.3) and 115 (8.6) and 160 (8.7)
Ventricular tachyarrhythmia, value in parentheses ([2]; in vivo): 84 (6.7) and 130 (7.3) and 115 (8.6) and 160 (8.7)
Primary endpoint, hazard ratio ([2]; overall population, NT-proBNP less than or equal to the median): 1.01
Primary endpoint, hazard ratio ([2]; overall population, NT-proBNP>median): 0.88
Primary outcome event rate compared with the placebo group ([2]; patients with AF/F at baseline, result in words): higher event rate
Proportional reduction in NT-proBNP compared with placebo ([2]; patients with NT-proBNP greater than the median at baseline): approximately 17%
Primary endpoint, hazard ratio ([2]; patients without AF/F, NT-proBNP greater than the median): 0.81
Primary endpoint, hazard ratio ([2]; patients without AF/F, NT-proBNP less than or equal to the median): 0.94
Benefit on primary endpoint ([2]; patients without AF/F, NT-proBNP≤median, result in words): no benefit
Relative risk reduction in cardiovascular mortality [2, 14]: 13%
Relative risk reduction in heart failure hospitalization [2, 14]: 21%
Relative risk reduction in the primary endpoint [2, 14]: 18%
Treatment efficacy / benefit by baseline NT-proBNP level ([2]; result in words): higher treatment efficacy; also recorded: larger in patients with higher baseline NT-proBNP levels
Renal clearance as share of the systemic clearance [3]: less than 10%
CL renal ([3]; oral, read-out: Mean renal clearance (converted)): 16.7 mL/min
clearance ([3]; oral, read-out: Total systemic clearance (converted)): 195 mL/min
half-life ([3]; patients with heart failure, read-out: Median half-life): 23 to 32 h
Vd ([3]; read-out: Volume of distribution at steady state): 4.8 to 6.6 L/kg
